Where a chain is given by its changes, count along the chain named.
Experiments:
[1] = target: RAC-alpha serine/threonine-protein kinase (Homo sapiens, UniProt P31749); experiment: Selectivity interaction (KinomeScan (DiscoverX)) EUB0001079a AKT1; conditions: at 1 µM
[2] = test system: T1, Receptor-type tyrosine-protein kinase FLT3 (Homo sapiens), P36888 [R834Q]; experiment: (§1) Selectivity interaction (KinomeScan (DiscoverX)) EUB0001079a FLT3; conditions: at 1 µM
T1 sequence (whole entry): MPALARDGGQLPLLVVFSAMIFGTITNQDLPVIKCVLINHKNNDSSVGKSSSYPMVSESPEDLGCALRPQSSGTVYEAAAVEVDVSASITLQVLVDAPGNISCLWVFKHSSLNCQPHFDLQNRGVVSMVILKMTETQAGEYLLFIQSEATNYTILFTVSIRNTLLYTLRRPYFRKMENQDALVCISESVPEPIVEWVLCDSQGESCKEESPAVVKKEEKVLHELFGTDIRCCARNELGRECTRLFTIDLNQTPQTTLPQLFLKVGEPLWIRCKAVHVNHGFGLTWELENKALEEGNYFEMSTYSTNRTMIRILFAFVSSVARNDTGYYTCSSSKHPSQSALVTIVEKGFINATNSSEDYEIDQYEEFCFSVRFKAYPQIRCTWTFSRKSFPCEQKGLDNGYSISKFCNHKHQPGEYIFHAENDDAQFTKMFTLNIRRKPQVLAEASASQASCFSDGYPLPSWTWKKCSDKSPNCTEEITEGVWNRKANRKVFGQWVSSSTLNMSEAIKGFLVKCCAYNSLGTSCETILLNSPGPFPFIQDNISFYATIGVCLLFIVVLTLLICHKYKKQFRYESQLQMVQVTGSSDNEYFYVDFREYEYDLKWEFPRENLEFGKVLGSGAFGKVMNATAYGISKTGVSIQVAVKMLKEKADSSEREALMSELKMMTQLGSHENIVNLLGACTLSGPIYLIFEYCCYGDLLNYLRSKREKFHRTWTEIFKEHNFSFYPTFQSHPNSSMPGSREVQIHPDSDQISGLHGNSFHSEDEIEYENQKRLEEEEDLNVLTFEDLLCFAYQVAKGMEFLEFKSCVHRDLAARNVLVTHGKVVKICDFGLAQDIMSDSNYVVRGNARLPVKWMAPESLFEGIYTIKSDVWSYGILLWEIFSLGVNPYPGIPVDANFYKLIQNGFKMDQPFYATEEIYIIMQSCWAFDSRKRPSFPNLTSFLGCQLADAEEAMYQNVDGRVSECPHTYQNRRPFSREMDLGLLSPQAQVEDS

[3] = target: Receptor-type tyrosine-protein kinase FLT3 (Homo sapiens) (UniProt P36888); experiment: as §1; conditions: at 1 µM
[4] = test system: T2, Receptor-type tyrosine-protein kinase FLT3 (Homo sapiens), P36888 [D835Y]; experiment: as §1; conditions: at 1 µM
T2 sequence (whole entry): T1 sequence (whole entry) with Q834R, D835Y

[5] = test system: Hepatocyte growth factor receptor (Homo sapiens), P08581 [M1250T]; experiment: (§2) Selectivity interaction (KinomeScan (DiscoverX)) EUB0000045b MET
Hepatocyte growth factor receptor (Homo sapiens), P08581 [M1250T], sequence (P08581 whole entry M1250T): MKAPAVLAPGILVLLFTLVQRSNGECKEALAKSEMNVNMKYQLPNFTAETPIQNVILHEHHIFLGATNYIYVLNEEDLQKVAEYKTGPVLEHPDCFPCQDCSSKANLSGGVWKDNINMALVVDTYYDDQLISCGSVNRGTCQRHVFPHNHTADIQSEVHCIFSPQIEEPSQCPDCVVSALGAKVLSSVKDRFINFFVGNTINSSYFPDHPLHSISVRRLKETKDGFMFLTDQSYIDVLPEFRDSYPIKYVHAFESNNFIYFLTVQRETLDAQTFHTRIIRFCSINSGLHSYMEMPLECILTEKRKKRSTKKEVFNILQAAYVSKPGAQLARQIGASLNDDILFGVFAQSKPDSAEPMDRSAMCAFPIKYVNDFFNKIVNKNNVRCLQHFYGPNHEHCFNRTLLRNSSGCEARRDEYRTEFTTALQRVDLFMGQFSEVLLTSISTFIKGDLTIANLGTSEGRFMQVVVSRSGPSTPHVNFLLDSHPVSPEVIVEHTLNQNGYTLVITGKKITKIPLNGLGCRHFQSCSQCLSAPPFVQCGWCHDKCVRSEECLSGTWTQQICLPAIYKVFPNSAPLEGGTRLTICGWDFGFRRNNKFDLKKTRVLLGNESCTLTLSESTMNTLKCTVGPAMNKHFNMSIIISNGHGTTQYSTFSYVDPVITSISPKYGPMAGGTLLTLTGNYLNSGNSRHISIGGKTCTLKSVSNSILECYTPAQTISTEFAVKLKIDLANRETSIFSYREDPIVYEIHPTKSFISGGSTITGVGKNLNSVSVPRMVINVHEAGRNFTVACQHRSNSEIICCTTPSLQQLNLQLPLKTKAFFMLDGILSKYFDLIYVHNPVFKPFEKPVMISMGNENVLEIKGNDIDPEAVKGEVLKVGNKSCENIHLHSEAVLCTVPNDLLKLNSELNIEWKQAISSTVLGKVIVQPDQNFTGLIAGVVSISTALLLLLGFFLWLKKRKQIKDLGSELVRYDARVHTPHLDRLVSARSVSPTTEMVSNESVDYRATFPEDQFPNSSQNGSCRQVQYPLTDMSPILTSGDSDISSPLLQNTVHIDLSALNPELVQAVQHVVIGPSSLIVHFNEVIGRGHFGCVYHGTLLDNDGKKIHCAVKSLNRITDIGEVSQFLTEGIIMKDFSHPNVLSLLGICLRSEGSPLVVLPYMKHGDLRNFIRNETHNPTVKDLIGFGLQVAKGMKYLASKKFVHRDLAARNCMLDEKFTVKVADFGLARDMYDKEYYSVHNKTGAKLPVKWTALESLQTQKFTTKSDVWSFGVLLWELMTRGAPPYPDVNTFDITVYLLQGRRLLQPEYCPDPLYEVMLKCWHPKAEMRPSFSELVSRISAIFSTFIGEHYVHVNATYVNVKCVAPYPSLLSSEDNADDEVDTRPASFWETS

[6] = target: Hepatocyte growth factor receptor (Homo sapiens, UniProt P08581); experiment: as §2
Hepatocyte growth factor receptor, sequence (P08581 whole entry): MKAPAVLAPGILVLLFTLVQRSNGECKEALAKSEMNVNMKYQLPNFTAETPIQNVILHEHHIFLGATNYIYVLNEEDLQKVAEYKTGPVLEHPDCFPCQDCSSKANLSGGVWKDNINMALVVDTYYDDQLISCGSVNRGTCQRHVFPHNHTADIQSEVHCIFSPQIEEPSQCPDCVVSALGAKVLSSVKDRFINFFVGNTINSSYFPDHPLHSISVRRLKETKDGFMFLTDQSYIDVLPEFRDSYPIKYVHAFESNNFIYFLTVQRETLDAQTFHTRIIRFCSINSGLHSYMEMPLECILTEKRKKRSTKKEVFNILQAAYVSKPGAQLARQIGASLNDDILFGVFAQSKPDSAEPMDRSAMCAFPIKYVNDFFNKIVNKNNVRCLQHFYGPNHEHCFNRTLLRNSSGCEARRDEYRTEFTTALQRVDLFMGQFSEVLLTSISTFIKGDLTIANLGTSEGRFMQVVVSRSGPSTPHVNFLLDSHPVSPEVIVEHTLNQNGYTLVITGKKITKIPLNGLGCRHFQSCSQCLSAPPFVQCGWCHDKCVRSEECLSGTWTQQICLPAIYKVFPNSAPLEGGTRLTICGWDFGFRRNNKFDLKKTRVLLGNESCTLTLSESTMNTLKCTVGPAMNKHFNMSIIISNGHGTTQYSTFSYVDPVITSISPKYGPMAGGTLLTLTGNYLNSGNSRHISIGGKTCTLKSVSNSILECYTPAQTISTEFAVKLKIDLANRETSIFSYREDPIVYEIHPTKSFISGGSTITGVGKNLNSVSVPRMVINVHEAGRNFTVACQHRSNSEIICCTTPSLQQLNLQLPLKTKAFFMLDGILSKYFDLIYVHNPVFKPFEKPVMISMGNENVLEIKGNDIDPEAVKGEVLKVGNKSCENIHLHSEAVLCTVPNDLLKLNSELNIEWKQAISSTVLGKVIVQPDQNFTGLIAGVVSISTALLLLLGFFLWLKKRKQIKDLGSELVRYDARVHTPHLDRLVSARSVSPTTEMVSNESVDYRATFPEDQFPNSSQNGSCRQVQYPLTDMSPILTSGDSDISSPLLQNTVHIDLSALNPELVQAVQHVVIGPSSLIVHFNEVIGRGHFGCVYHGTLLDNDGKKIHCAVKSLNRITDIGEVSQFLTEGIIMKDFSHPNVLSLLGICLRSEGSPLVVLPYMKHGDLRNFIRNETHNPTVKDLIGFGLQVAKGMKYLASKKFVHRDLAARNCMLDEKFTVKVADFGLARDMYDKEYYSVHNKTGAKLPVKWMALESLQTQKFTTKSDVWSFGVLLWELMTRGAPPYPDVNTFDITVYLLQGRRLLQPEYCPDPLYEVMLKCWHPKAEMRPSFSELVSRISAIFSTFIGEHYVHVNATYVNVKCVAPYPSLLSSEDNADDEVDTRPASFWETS

[7] = test system: Hepatocyte growth factor receptor (Homo sapiens), P08581 [Y1235D]; experiment: as §2
Hepatocyte growth factor receptor (Homo sapiens), P08581 [Y1235D], sequence (P08581 whole entry Y1235D): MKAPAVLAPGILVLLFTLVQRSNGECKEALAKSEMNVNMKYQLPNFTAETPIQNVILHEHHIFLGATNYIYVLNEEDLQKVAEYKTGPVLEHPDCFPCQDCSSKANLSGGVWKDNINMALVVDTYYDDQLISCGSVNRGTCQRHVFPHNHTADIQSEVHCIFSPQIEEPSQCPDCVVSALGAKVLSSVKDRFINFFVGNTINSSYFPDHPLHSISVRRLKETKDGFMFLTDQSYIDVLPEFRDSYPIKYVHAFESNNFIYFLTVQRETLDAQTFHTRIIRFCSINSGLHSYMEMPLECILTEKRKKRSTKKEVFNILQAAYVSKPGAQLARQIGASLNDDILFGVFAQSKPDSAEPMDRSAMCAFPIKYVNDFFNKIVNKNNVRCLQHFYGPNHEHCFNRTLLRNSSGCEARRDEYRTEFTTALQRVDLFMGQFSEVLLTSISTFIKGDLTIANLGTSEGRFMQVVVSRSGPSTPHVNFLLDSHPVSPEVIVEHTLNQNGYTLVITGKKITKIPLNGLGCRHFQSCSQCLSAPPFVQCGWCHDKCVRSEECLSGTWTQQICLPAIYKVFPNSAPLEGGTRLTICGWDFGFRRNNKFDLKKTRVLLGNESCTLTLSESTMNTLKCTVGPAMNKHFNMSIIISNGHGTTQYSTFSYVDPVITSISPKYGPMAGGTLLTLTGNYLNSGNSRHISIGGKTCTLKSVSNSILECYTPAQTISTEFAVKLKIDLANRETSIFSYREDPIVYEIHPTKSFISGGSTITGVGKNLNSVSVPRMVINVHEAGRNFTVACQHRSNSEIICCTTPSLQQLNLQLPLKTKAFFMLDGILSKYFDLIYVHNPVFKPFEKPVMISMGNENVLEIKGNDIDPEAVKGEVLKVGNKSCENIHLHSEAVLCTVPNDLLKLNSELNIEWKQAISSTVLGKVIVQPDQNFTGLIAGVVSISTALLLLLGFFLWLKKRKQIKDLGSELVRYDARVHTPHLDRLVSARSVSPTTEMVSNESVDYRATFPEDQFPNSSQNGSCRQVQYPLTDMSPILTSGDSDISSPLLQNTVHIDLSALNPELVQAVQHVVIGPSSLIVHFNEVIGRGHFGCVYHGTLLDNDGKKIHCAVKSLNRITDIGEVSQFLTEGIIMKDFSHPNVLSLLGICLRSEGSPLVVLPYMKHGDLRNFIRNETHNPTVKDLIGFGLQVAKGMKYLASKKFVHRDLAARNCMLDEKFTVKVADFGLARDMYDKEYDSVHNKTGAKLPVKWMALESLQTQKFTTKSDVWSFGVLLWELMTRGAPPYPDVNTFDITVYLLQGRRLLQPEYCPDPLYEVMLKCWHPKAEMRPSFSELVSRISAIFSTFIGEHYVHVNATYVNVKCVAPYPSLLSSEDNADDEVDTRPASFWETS

RAC-alpha serine/threonine-protein kinase, sequence (P31749 whole entry): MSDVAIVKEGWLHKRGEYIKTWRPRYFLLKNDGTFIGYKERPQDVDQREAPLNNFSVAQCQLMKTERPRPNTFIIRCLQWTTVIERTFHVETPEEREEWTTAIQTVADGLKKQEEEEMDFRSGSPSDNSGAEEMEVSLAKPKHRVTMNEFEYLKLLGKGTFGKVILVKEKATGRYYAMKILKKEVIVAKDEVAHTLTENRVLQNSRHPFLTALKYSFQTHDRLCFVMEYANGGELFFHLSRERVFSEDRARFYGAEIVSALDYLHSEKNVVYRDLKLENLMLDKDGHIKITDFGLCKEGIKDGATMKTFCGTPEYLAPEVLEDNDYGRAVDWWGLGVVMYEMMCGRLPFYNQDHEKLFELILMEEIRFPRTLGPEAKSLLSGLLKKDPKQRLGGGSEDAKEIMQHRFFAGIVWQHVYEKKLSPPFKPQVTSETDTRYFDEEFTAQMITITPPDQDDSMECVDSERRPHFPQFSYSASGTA

`Nc1cnc(N2CCc3cc(S(=O)(=O)Nc4c(F)cc(Cl)cc4F)cc(N4CCCC4=O)c32)nc1` [TP-020n] was tested, and the % of control [1] was 100%, the % of control [2] was 77% and the % of control [3] was 81%. For the same compound, the % of control [4] was 100%.

With `C=CC(=O)Nc1cc(-n2c(=O)ccc3cnc4ccc(-c5ccc(NS(C)(=O)=O)cc5)cc4c32)ccc1C` the % of control ([5]; at 1 µM) was 80%, the % of control ([5]; at 10 µM) was 90% and the % of control ([6]; at 1 µM) was 100%. It also gave a % of control ([6]; at 10 µM) of 64%, a % of control ([7]; at 1 µM) of 95% and a % of control ([7]; at 10 µM) of 100%.
